Results on two compounds are retold here after paper PMC6391970, “Design, Synthesis and Characterization of Covalent KDM5 Inhibitors” (Angewandte Chemie (International Ed. in English), 2018).

For one data set, the system named is HEK-293 cells. Nature of the data set: Cytotoxicity assessment, Cell Titer-Glo, 72 hours. In kind it is cell-based, human. The following applies: CTG viability at 72 hrs. The source says: Immunofluorescence‐based assays have been previously used to analyse global changes in H3K4me3 as a measure of KDM5 activity, but the global change can be affected by other factors such as cytotoxicity.17 We therefore employed chromatin immunoprecipitation and sequencing (ChIP‐seq) as a more accurate method to quantify the H3K4me3 level at transcriptional start sites (TSS) as a read‐out for inhibition of KDM5 activity. […] Compounds 4, 7 and 9 were selected for H3K4me3 ChIP‐seq experiments and quantification.18 […]
(§1) Covalent binding RapidFire
Recombinant KDM5B (MW = 55152 Da) was incubated at 1 μM with the appropriate compound at 10 μM for 2 hours at 37 °C in 50 mM MES buffer at pH 7.0. Samples were injected in RapidFire 365 and MS was detected in QTOF mass spectrometer. Data were acquire and analysed with Agilent Mass Hunter software. […]
(§2) Digestion with elastase (1 µL) overnight at 37 °C followed by purification with SEP-PAK C18 columns and resuspension of the final sample in 98% MilliQ-H20 2% CH3CN 0.1% TFA gave the final sample ready to inject. […]
NanoBRET™ Nano-Glo® substrate (Promega UK) and Extracellular NanoLuc Inhibitor (Promega UK) were added at final concentrations of 10 and 20 µM, respectively. Readings were performed within 5 minutes using a PHERAstar FSX (BMG Labtech) with 450 and 610 nm filters. […] BRET ratios are expressed as milliBRET units (mBU), where 1 mBU corresponds to […]
A general note: ATP-based viability assays read luminescence as a measure of living cells.

The next data set deals with T1, KDM4B (Homo sapiens, UniProt O94953).
T1 sequence (O94953 1-1096): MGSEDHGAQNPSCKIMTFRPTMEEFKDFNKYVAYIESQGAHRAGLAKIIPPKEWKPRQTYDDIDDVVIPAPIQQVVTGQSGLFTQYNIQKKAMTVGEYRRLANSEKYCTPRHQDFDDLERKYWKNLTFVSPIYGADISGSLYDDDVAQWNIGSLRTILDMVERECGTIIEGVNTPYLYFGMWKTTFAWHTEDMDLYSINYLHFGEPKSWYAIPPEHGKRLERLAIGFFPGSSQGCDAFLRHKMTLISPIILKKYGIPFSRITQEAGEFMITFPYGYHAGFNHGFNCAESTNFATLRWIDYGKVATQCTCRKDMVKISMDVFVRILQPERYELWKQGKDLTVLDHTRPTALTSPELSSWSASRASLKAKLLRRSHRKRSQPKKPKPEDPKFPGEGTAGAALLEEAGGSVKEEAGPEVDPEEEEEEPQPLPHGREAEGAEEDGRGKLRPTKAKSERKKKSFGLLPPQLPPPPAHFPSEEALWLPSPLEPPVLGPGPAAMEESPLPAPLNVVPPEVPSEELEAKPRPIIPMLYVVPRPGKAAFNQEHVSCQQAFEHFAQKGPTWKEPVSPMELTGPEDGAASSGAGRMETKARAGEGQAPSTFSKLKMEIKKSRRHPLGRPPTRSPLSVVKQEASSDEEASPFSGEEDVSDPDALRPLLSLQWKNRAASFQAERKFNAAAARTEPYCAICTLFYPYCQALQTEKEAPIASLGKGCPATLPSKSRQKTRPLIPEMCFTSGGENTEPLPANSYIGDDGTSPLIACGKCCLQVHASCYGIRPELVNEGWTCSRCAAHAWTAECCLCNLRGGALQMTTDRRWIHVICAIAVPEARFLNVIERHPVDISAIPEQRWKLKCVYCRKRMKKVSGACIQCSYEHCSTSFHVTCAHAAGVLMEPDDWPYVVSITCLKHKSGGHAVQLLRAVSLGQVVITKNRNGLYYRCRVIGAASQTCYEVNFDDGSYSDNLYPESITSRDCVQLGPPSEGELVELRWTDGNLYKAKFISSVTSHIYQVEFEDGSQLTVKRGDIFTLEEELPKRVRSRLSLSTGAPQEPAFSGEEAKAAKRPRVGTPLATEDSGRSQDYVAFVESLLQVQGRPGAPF
The data set can be described thus: Covalent binding by MS, KDM4B. Conditions: same conditions as with KDM5B. As to the method:
Covalent binding of the inhibitors with KDM5B was confirmed through MS‐labelling experiments (Figure 3). […] The specific covalent binding to KDM5B explains the improved selectivity over KDM5C and KDM4B compared to non‐covalent inhibitor 2.
as §1
Recombinant KDM5B (MW = 55152 Da) was incubated at 1 μM with the appropriate compound at 10 μM for 2 hours at 37 °C in 50 mM MES buffer at pH 7.0. Samples were injected in RapidFire 365 and MS was detected in QTOF mass spectrometer. Data were acquire and analysed with Agilent Mass Hunter software.
Recombinant KDM5B was incubated at 1 μM with the appropriate compound at 10 μM for 2 hours at 37 °C in 200 µL of 50 mM MES buffer at pH 7.0. […]
as §2
NanoBRET™ Nano-Glo® substrate (Promega UK) and Extracellular NanoLuc Inhibitor (Promega UK) were added at final concentrations of 10 and 20 µM, respectively. Readings were performed within 5 minutes using a PHERAstar FSX (BMG Labtech) with 450 and 610 nm filters. Corrected BRET ratios were calculated and is defined as the ratio if the emission at 610/450 nm for experimental samples (i.e. those treated with tracer) minus the emission at 610/450 nm for control samples (DMSO controls). […]

Take `CN(CCc1cnn(-c2nccc3c(=O)[nH]cnc23)c1)Cc1cccc(NC(=O)CCl)c1` [Compound 5]: the “cytotoxicity in HEK cells” value in the data set on HEK-293 cells is given as “with the exception of 5, compounds were not cytotoxic”. `CN(C)C/C=C/C(=O)Nc1cccc(CN(C)CCc2cnn(-c3nccc4c(=O)[nH]cnc34)c2)c1` [Compound 6]: the “covalent binding to KDM4B by MS” value at KDM4B is listed as “no covalent binding”.
